Experimental findings from patent publication US20130005568A1, “SAFENED HERBICIDAL MIXTURES” (E.I. DU PONT DE NEMOURS AND COMPANY, priority 2011, published 2013) are described below.

This data set deals with Pioneer 39K40 hybrid maize. As to the kind of experiment: Test C: visual plant response rating, postemergence acetohydroxy acid synthase-inhibiting herbicides alone and with Compound 1. In kind it is in vivo, Zea mays L. spp. indentata Sturt. Conditions: greenhouse, two weeks, 0-100 scale. The method, then: For all of the following biological tests, plant response ratings were based on a 0-100 scale where zero is growth equivalent to that of untreated plants (no plant response) and 100 represents no additional growth occurring after herbicide treatment.
Herbicide mixtures were dissolved/dispersed in a non-phytotoxic liquid carrier and were sprayed postemergence to Pioneer 39K40 hybrid maize (Zea mays L. spp. indentata Sturt.) in the third collar growth stage (extended leaf height was 40-60 cm). Treated plants were grown under greenhouse conditions for two weeks before visual evaluations of plant responses were recorded.

The mark [1] stands for this setting: herbicide 35 g ai/ha + Compound 1 125 g ai/ha.
Setting [2] is: herbicide 17.5 g ai/ha + Compound 1 125 g ai/ha.

For the compound `CCCOc1nn(C(=O)[N-]S(=O)(=O)c2ccccc2C(=O)OC)c(=O)n1C.[Na+]` [Propoxycarbazone-sodium, propoxycarbazone], the “Observed Response, Herbicide mixture with Compound 1” value (shortened to “Observed Response, Herbicide mixture”) under setting [1] turned out to be 100. Under “herbicide 35 g ai/ha”, the “Observed Response, Herbicide alone” value is given as 100.

Consider `COC(=O)c1cccc(C)c1S(=O)(=O)NC(=O)Nc1nc(OCC(F)(F)F)nc(N(C)C)n1` [Triflusulfuron-methyl, triflusulfuron-methyl], for which the “Observed Response, Herbicide mixture” value under setting [1] turned out to be 100. The “Observed Response, Herbicide alone” value (herbicide 35 g ai/ha) turned out to be 100.

For `COC(=O)c1ccc(I)cc1S(=O)(=O)NC(=O)Nc1nc(C)nc(OC)n1` [Iodosulfuron-methyl, iodosulfuron-methyl], the “Observed Response, Herbicide mixture” value under setting [2] worked out at 57. In addition, the “Observed Response, Herbicide alone” value (herbicide 17.5 g ai/ha) turned out to be 100.

Take `CCOC(=O)c1ccccc1S(=O)(=O)NC(=O)Nc1nc(Cl)cc(OC)n1` [Chlorimuron-ethyl, chlorimuron-ethyl]: the “Observed Response, Herbicide mixture” value (herbicide 8 g ai/ha + Compound 1 125 g ai/ha) was 53. The “Observed Response, Herbicide alone” value (herbicide 8 g ai/ha) is on record as 96.

In the case of `COC(=O)c1c(Cl)nn(C)c1S(=O)(=O)NC(=O)Nc1nc(OC)cc(OC)n1` [Halosulfuron-methyl, halosulfuron-methyl], the “Observed Response, Herbicide mixture” value under setting [2] came to 10. Besides, for the setting “herbicide 17.5 g ai/ha”, the “Observed Response, Herbicide alone” value is listed as 37.

In the case of Imazamethabenz, the “Observed Response, Herbicide mixture” value under setting [2] is 100. For the same compound, for the setting “herbicide 17.5 g ai/ha”, the “Observed Response, Herbicide alone” value was 100.

As for `COC(=O)c1ccc(CNS(C)(=O)=O)cc1S(=O)(=O)NC(=O)Nc1nc(OC)cc(OC)n1` [Mesosulfuron-methyl, mesosulfuron-methyl], the “Observed Response, Herbicide mixture” value under setting [2] is 100. The “Observed Response, Herbicide alone” value (herbicide 17.5 g ai/ha) is recorded as 100.

Turning to `CC(C)C1(C)N=C(c2nc3ccccc3cc2C(=O)O)NC1=O` (stereo not shown) [Imazaquin, imazaquin], the “Observed Response, Herbicide mixture” value under setting [2] is on record as 100. Further, the “Observed Response, Herbicide alone” value (herbicide 17.5 g ai/ha) is on record as 100.
